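How tested: cells in 96-well plates exposed to compound for 48 hours at five concentrations. GI50 is the concentration that inhibits growth by half.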 Active and inactive are the calls of the source. Rule as the data show it: active = GI50 up to about 1.1 µM and inactive = higher.
Experiments:
Test in all cases: NCI-60 cell line screen, 48 h
786-0 = tested on: 786-0
UACC-62 = tested on: UACC-62
SNB-19 = tested on: SNB-19
HCC 2998 = tested on: HCC 2998
MOLT-4 = tested on: MOLT-4
NCI/ADR-RES = tested on: NCI/ADR-RES
HCT-15 = tested on: HCT-15
MDA-MB-435 = tested on: MDA-MB-435
NCI-H460 = tested on: NCI-H460
HT-29 = tested on: HT-29
SR = tested on: SR
MCF7 = tested on: MCF7
MDA-N = tested on: MDA-N
SK-OV-3 = tested on: SK-OV-3
OVCAR-3 = tested on: OVCAR-3
RPMI-8226 = tested on: RPMI-8226
EKVX = tested on: EKVX
HL-60 = tested on: HL-60
OVCAR-4 = tested on: OVCAR-4

Structure (SMILES)	GI50 (786-0)	GI50 (UACC-62)	GI50 (SNB-19)	GI50 (HCC 2998)	GI50 (MOLT-4)	GI50 (NCI/ADR-RES)	GI50 (HCT-15)	GI50 (MDA-MB-435)	GI50 (NCI-H460)	GI50 (HT-29)	GI50 (SR)	GI50 (MCF7)	GI50 (MDA-N)	GI50 (SK-OV-3)	GI50 (OVCAR-3)	GI50 (RPMI-8226)	GI50 (EKVX)	GI50 (HL-60)	GI50 (OVCAR-4)
Cc1c2c3ccccc3nc-2n(C)c2ccccc12	2.02 µM (inactive)	1.7 µM (inactive)	5.35 µM (inactive)	2.64 µM (inactive)	0.339 µM (active)	2.01 µM (inactive)	0.548 µM	2.9 µM (inactive)	0.396 µM (active)	1.34 µM (inactive)	1.44 µM (inactive)	1.41 µM (inactive)	2.72 µM (inactive)	1.25 µM (inactive)	1.77 µM (inactive)	2.7 µM (inactive)	2.43 µM (inactive)	3.29 µM (inactive)	
COc1ccc(-n2c(N)c(C#N)c(C#N)c2-c2ccco2)cc1	> 100 µM (inactive)	38.5 µM (inactive)	> 100 µM (inactive)	> 100 µM (inactive)	46.7 µM (inactive)	> 100 µM (inactive)	> 100 µM	> 100 µM (inactive)		> 100 µM (inactive)	> 100 µM (inactive)	> 100 µM (inactive)	45.5 µM (inactive)	> 100 µM (inactive)	> 100 µM (inactive)	> 100 µM (inactive)	5.01 µM (inactive)	> 100 µM (inactive)	23.3 µM (inactive)
NC(Cc1ccc(OCc2ccccc2)cn1)C(=O)O (stereo unspecified)	> 100 µM (inactive)		> 100 µM (inactive)	> 100 µM (inactive)	> 100 µM (inactive)	> 100 µM (inactive)	> 100 µM	> 100 µM (inactive)	> 100 µM (inactive)	> 100 µM (inactive)	> 100 µM (inactive)	> 100 µM (inactive)	> 100 µM (inactive)		> 100 µM (inactive)	> 100 µM (inactive)	> 100 µM (inactive)	> 100 µM (inactive)	
Cc1nc(O)nc(NNCc2ccc(Cl)cc2)c1C(=O)Nc1ccc(Cl)cc1	> 100 µM (inactive)	3.69 µM (inactive)	> 100 µM (inactive)	> 100 µM (inactive)	> 100 µM (inactive)	> 100 µM (inactive)	50.1 µM	88.1 µM (inactive)	> 100 µM (inactive)		> 100 µM (inactive)	> 100 µM (inactive)	81.1 µM (inactive)	> 100 µM (inactive)	> 100 µM (inactive)	> 100 µM (inactive)		> 100 µM (inactive)	> 100 µM (inactive)
CCCCC1C(=O)N(c2ccc(S(=O)(=O)Nc3ccccn3)cc2)N(c2ccc(O)c(C(=O)O)c2)C1=O (stereo unspecified)	> 100 µM (inactive)	> 100 µM (inactive)	> 100 µM (inactive)	> 100 µM (inactive)	> 100 µM (inactive)	> 100 µM (inactive)	> 100 µM	> 100 µM (inactive)	> 100 µM (inactive)	> 100 µM (inactive)	> 100 µM (inactive)	> 100 µM (inactive)	> 100 µM (inactive)	> 100 µM (inactive)	> 100 µM (inactive)	> 100 µM (inactive)	> 100 µM (inactive)	> 100 µM (inactive)	> 100 µM (inactive)
CCC(C#N)N(Cc1ccc(CN(C(=O)c2ccccc2)C(C#N)CC)cc1)C(=O)c1ccccc1 (stereo unspecified)	19.2 µM (inactive)	12.1 µM (inactive)	27 µM (inactive)	14.6 µM (inactive)	15.8 µM (inactive)	18.2 µM (inactive)	22.2 µM	25.5 µM (inactive)		14.7 µM (inactive)	54.6 µM (inactive)	19.2 µM (inactive)	32.4 µM (inactive)	23.9 µM (inactive)	16.7 µM (inactive)	14.5 µM (inactive)	22.8 µM (inactive)	29.8 µM (inactive)	17.4 µM (inactive)
O=c1[nH]c(=O)c2c([nH]1)[nH]c1ccc(Br)cc12	66.2 µM (inactive)	> 100 µM (inactive)	> 100 µM (inactive)	28 µM (inactive)		> 100 µM (inactive)	66.1 µM	> 100 µM (inactive)		> 100 µM (inactive)	> 100 µM (inactive)	69 µM (inactive)	> 100 µM (inactive)	13.6 µM (inactive)		79.6 µM (inactive)	> 100 µM (inactive)	70.6 µM (inactive)	
CN1C(=O)N(C)C(O)C(Cl)(Br)C1=O (stereo unspecified)	> 100 µM (inactive)	> 100 µM (inactive)	> 100 µM (inactive)	> 100 µM (inactive)	> 100 µM (inactive)	> 100 µM (inactive)	> 100 µM	> 100 µM (inactive)	> 100 µM (inactive)	> 100 µM (inactive)	> 100 µM (inactive)	> 100 µM (inactive)	> 100 µM (inactive)	> 100 µM (inactive)	> 100 µM (inactive)	> 100 µM (inactive)	> 100 µM (inactive)	> 100 µM (inactive)	
O=C(NS(=O)(=O)Nc1ccc(Cl)cc1)OCc1ccc(Cl)cc1Cl	34.6 µM (inactive)	14 µM (inactive)	18.6 µM (inactive)	12.1 µM (inactive)	46.2 µM (inactive)	21.9 µM (inactive)	34.3 µM	22.1 µM (inactive)	13.4 µM (inactive)	20.5 µM (inactive)	38.2 µM (inactive)	14.8 µM (inactive)	14.7 µM (inactive)	21.1 µM (inactive)	17.7 µM (inactive)	54.5 µM (inactive)		25.3 µM (inactive)	24 µM (inactive)
CCN1/C(=C/C#C/C(C)=C\c2sc3ccccc3[n+]2CC)Sc2ccccc21	3.13 µM (inactive)	2.55 µM (inactive)	1.91 µM (inactive)	3.01 µM (inactive)	24.4 µM (inactive)	3.53 µM (inactive)	3.69 µM	2.36 µM (inactive)	2.53 µM (inactive)	1.35 µM (inactive)	0.811 µM (active)	4.05 µM (inactive)	2.9 µM (inactive)	10.6 µM (inactive)		0.222 µM (active)	1.33 µM (inactive)	0.482 µM (active)	7.33 µM (inactive)
CC(Br)C(=O)c1ccc2cc(Br)c3ccccc3c2c1 (stereo unspecified)	3.34 µM (inactive)	15.4 µM (inactive)	17.4 µM (inactive)	15.7 µM (inactive)		18 µM (inactive)	16.6 µM	14.5 µM (inactive)	16 µM (inactive)	17.1 µM (inactive)	3.15 µM (inactive)	14.9 µM (inactive)	12.9 µM (inactive)	16.8 µM (inactive)	12.1 µM (inactive)	4.65 µM (inactive)	14.4 µM (inactive)	12 µM (inactive)	16.7 µM (inactive)
CCOC(=O)C1c2[nH]c3ccccc3c2CCN1C(=O)c1ccco1 (stereo unspecified)	> 10 µM (inactive)	> 10 µM (inactive)	> 10 µM (inactive)	> 10 µM (inactive)	> 10 µM (inactive)	> 10 µM (inactive)	> 10 µM	> 10 µM (inactive)		> 10 µM (inactive)	> 10 µM (inactive)	> 10 µM (inactive)	> 10 µM (inactive)	> 10 µM (inactive)	> 10 µM (inactive)	> 10 µM (inactive)	> 10 µM (inactive)	> 10 µM (inactive)	> 10 µM (inactive)
